Entries after “also recorded” stand apart in the source; their conditions may differ.
Key:
[1] = system: SH-SY5Y (neuroblastoma cell line); test: RNAseq global gene expression in differentiated SH-SY5Y cells; format: cell-based, human
Experimental: To determine the cellular response to SCA-744 (Cat. No. 55523-250 MG Sigma-Aldrich), the global changes in gene expression upon treatment of human in vitro cultured cells, SH-SY5Y (neuroblastoma cell line: SH-SY5Y-ATCC-CRL-2266) were analysed by RNAseq analysis. SH-SY5Y were cells differentiated with retinoic acid and Phorbol-12-Myristate-13-Acetate (Presgraves et al. Experimental Neurology 2004, 190(1), pp. 157-170). Cell cultures were treated for 24 hours with 500 μM of SCA-744 or vehicle (DPBS). Total RNA was isolated to prepare libraries using the Lexogen SENSE mRNA kit and sequenced using a HiSeq2500 (Illumina) running in 50 bp single-read modes using sequencing chemistry v4. Differentially expressed genes (DEGs) were identified by applying the statistical tests of DESeq (Anders & Huber, Genome biology 2010, 11(10), p. R106), and edgeR (Robinson et al. Bioinformatics 2009, 26(1), pp. 139-140.) packages. The comparison was made with Homo sapiens identifiers.

aged mice = test: Lung lysate cytokines in aged mice (animal model of ageing); format: in vivo; details: 30 mg/kg i.p., 2 or 3 days intervals for 2 weeks
Experimental: In a second set of experiments, the anti-inflammatory effect of SCA-744 was tested in vivo, in an animal model of ageing. It is well established that the ageing process is associated with low-grade inflammation. Mice older than 18 months show many characteristics of aged humans and are considered as a relevant model of human ageing. […] After treatment of aged mice (5 mice/group) with SCA-744 for 2 weeks (at 2 or 3 days intervals at 30 mg/kg dose, i.p.), lungs of the mice were harvested and lysates were prepared. Cytokine levels were determined by LEGENDplex™ Mouse Inflammation Panel assay from BioLegend. […] Importantly, the anti-inflammatory cytokine IL-10 was not affected by SCA-744.

Osteopontin (OPN) = test: 15N-1H HSQC NMR binding to osteopontin
Experimental: In order to verify the predicted heparan sulfate mimicking activity of SCA-744, its physical interaction was probed with a prototypical HS-binding protein Osteopontin (OPN), a component of the extracellular matrix (ECM). To this end, NMR spectroscopy was used to directly probe the interaction and map the location of the interaction site along the protein backbone. The experimental strategy was as follows: First, ^15N-labelled OPN was prepared following well-established molecular biology technology techniques. Individual residue positions are directly monitored via the so-called ^15N-^1H Heteronuclear Single-Quantum Coherence (HSQC) spectroscopy, where individual cross peaks in the two-dimensional (2D) frequency spectrum corresponds to individual residue positions (amino acids) of the protein. Ligand binding changes the chemical environment of residues located in the binding site and leads to a change in the HSQC spectrum. Since the signal assignment is available, the residue positions which are affected by ligand binding can easily be identified by comparing HSQC spectra of the apo (ligand-free) and ligand-bound state of the protein (FIG. 7A). […] It is very convenient to analyze the chemical shift changes (induced by ligand binding) as a function of residue positions (FIG. 7B,C). Residues that display the largest chemical shift changes are typically part of the binding interface. […] Therefore, it can be concluded that SCA-744 and HS share the same ligand interaction sites and therefore are in competition for binding.

mice = test: CFA-induced chronic arthritis model: joint histology; format: in vivo; details: 60 mg/kg i.p. daily, 21-day period
Experimental: The chronic arthritis was induced by intraplantar (i.pl.) injection of 20 μl complete Freund's adjuvant (CFA, heat-killed Mycobacterium suspended in paraffin oil, 1 mg/ml; Sigma Aldrich, St. Louis, MO, USA) into the right hind paw and 20 μl subcutaneously (s.c.) into the tail root. An additional s.c. injection (20 μl) was administered on the following day (day 1) into the tail root in order to potentiate the systemic effects mimicking the human condition.
The excised tibiotarsal joints are fixed in 4% buffer formaldehye, decalcified and paraffin-embedded, sliced into sections (5 μm) and stained with hematoxylin and esosin. Arthritic changes are scored by a blinded observer using a scale of 0 to 3 according to 1) mononuclear cells infiltration into areolar tissue, 2) synovial hyperplasia, 3) cartilage destruction, 4) bone erosion.

[2] = system: Human neuroblastoma SH-SY5Y cells; test: Untargeted metabolic profiling of SH-SY5Y cells; format: cell-based; details: 500 μM, 24 h
Experimental: Human neuroblastoma SH-SY5Y cells were differentiated and treated with 500 μM SCA-744 for 24 h. Cell pellets were extracted using a MeOH:ACN:H2O (2:2:1, v/v) solvent mixture. Untargeted metabolic profiling was performed at the VBCF Metabolomic Unit (www.vbcf.ac.at) employing high-resolution mass spectrometry.
The untarged metabolomic data was analyzed with the Compound Discover Software (version 3.1). The first set of metabolites were analyzed through the internal database of the Vienna Biocenter Core facility. The measured retention time of a compound was compared to the retention time of a standard previously measured. In the case there was a MS2 spectrum available, this was also taken into consideration for identification. The second set of metabolites was annotated with mzCloud (match at least 75%). Identification was based on mzCloud database comparison of measured molecular weight (5 ppm tolerance) and MS2 spectra. The third set of metabolites were annotated via ChemSpider identification (CSID) through molecular weight matching (max. mass tolerance 5 ppm). P-values were calculated by the Compound Discover Software from biological and technical (T1-T2, MS) replicates. For further annotations KEGG, HMDB, BioCyc, Metabolika and PubChem databases were used.
The metabolites with a false discovery rate (FDR)<0.05 along with p-values and corresponding fold-change were extracted and subjected to chemical and metabolic network enrichment analysis. Enrichment analysis based on chemical similarity was conducted using ChemRich that is independent of biochemical pathway assignments, but rather utilizes Tanimoto substructure similarity coefficients and medical subject headings ontology to generate non-overlapping clusters of metabolites into distinct chemical classes. Statistical testing was determined by Kolmogorv-Smirnov testing and an FDR adjusted P value of <0.05 was considered significant.
Comparison of relative metabolite abundance between control and -treated cells was determined by unpaired univariate analysis. Calculated P values were adjusted based on an FDR of 0.05 and filtered by log Fold-Change (log FC) analysis (Table 3). For illustrative purposes the metabolites are annotated on the resulting volcano plot with log FC>1 log FC<−2. A total of 261 annotated metabolites were found with an FDR<0.05.

[3] = 500 μM, 24 hours, differentiated SH-SY5Y

binding sites on OPN (chemical shift changes by residue) (Osteopontin (OPN); HS compared with SCA-744): overlapping binding sites
Structure (SMILES): O=S(=O)(O)c1cc2c(O)c(c1)Cc1cc(S(=O)(=O)O)cc(c1O)Cc1cc(S(=O)(=O)O)cc(c1O)Cc1cc(S(=O)(=O)O)cc(c1O)C2 [SCA-744, 4-sulfocalix[4]arene]
genes for LDLR, INSIG1 and DHCR24/Seladin-1 [1]: found to be modulated
genes involved in inflammation, anti-oxidative, anti-ageing response and lipid metabolism (RNAseq) [1, 3]: differentially regulated
mRNA expression of anti-oxidative genes CHAC1, NQO1, SLC7A11 (RNASeq) [1, 3]: significant up-regulation
mRNA expression of key genes involved in pro-inflammatory response [1, 3]: down regulates key genes involved in pro-inflammatory response
IL-6, TNF-α and lipocalin (LCN2) in lung lysates (aged mice): Significantly decreased amounts
anti-inflammatory cytokine IL-10 in lung lysates (aged mice): not affected
binding to OPN (HSQC spectra ligand-free vs ligand-bound) (Osteopontin (OPN); 15N-labelled OPN): binds to a heparan sulfate binding protein, osteopontin; also recorded: unambigious proof for SCA-744 binding to OPN
synovial hyperplasia score (scale 0 to 3) (mice): significantly lower
Glycolysis and NADH, as well as ATP [2]: significant down-regulated
Hypoxanthine and Inosine abundance [2]: highly significant up-regulated
Lysophosphatidyl (LPI) abundance [2]: most up-regulated metabolite
Thymine and adenine nucleotides, dipeptides and amino acids [2]: down-regulated
pharmacological response in metabolic analysis [2]: altered lipid metabolism, down-regulated glycolysis and reduction of NADH, ATP

— US12714682B2, “Calixarene compounds and uses thereof” (UNIVERSITÄT WIEN, priority 2019, dated 2026)
